For assay [1], the target named is Mitogen-activated protein kinase 8 (Homo sapiens, UniProt P45983). Description: Selectivity interaction (ProQinase) EUB0000171b MAPK8.
Assay [2] deals with T1, Serine/threonine-protein kinase ULK1 (Homo sapiens) (UniProt O75385).
T1 sequence (whole entry): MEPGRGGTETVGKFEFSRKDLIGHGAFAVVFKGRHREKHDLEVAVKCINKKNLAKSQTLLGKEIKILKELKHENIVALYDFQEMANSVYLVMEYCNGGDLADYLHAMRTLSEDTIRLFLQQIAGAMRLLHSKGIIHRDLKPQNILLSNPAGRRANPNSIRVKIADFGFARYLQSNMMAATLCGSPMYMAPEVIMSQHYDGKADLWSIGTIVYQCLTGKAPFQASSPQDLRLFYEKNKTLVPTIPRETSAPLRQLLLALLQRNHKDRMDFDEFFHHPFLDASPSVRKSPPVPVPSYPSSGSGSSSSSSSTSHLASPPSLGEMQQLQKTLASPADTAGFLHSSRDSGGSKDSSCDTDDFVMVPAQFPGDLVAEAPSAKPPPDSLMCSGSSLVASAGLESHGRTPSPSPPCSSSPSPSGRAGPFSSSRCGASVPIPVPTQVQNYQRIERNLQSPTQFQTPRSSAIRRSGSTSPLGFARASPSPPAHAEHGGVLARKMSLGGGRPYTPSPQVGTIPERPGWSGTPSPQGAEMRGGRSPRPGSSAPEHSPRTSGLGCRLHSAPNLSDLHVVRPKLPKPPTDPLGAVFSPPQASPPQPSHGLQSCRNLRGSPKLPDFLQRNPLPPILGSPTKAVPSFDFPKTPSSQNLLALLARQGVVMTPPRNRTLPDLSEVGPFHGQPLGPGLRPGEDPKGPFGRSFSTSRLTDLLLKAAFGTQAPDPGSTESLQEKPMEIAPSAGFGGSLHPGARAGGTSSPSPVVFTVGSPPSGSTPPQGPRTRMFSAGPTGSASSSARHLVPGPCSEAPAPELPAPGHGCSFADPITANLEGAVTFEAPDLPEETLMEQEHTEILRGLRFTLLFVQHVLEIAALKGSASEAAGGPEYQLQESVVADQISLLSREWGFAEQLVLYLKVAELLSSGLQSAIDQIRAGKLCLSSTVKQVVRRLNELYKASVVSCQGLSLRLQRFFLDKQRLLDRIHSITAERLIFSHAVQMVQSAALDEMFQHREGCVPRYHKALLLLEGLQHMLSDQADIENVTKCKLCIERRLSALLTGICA
Description: Selectivity interaction (KinomeScan (DiscoverX)) EUB0001049a ULK1. To be noted: at 1 µM.

The target of assay [3] is Serine/threonine-protein kinase SIK2 (Homo sapiens) (UniProt Q9H0K1). Briefly: Selectivity interaction (Kinase panel (Carna Biosciences)) EUB0001542aTs SIK2. To be noted: at 1 µM.
Serine/threonine-protein kinase SIK2 (Homo sapiens), sequence (Q9H0K1 whole entry, looked up, canonical isoform): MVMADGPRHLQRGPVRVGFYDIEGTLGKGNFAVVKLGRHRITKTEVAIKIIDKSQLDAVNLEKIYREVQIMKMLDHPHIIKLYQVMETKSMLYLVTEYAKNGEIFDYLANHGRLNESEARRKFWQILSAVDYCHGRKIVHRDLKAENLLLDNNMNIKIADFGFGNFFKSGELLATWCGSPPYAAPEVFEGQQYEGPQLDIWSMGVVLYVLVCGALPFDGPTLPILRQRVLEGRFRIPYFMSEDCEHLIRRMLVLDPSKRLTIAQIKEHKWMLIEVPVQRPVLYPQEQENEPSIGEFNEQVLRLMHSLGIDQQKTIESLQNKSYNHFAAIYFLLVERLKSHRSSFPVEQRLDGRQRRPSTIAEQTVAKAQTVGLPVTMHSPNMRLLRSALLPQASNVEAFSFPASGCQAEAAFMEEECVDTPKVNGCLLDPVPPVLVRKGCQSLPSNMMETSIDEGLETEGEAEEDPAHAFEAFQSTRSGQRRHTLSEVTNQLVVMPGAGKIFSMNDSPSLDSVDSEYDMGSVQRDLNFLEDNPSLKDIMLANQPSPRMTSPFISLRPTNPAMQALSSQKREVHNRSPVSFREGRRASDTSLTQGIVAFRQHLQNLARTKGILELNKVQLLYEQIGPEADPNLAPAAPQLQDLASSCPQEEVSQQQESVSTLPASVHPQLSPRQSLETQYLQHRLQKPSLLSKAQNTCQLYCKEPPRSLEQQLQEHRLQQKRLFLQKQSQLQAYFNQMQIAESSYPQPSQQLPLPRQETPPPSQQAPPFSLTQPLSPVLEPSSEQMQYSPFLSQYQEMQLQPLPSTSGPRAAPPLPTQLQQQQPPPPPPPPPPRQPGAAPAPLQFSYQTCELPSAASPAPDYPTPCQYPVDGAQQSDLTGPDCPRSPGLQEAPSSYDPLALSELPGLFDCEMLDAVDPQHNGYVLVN
Assay [4] addresses T2, Phosphatidylinositol 4,5-bisphosphate 3-kinase catalytic subunit delta isoform (Homo sapiens) (UniProt O00329).
T2 sequence (whole entry): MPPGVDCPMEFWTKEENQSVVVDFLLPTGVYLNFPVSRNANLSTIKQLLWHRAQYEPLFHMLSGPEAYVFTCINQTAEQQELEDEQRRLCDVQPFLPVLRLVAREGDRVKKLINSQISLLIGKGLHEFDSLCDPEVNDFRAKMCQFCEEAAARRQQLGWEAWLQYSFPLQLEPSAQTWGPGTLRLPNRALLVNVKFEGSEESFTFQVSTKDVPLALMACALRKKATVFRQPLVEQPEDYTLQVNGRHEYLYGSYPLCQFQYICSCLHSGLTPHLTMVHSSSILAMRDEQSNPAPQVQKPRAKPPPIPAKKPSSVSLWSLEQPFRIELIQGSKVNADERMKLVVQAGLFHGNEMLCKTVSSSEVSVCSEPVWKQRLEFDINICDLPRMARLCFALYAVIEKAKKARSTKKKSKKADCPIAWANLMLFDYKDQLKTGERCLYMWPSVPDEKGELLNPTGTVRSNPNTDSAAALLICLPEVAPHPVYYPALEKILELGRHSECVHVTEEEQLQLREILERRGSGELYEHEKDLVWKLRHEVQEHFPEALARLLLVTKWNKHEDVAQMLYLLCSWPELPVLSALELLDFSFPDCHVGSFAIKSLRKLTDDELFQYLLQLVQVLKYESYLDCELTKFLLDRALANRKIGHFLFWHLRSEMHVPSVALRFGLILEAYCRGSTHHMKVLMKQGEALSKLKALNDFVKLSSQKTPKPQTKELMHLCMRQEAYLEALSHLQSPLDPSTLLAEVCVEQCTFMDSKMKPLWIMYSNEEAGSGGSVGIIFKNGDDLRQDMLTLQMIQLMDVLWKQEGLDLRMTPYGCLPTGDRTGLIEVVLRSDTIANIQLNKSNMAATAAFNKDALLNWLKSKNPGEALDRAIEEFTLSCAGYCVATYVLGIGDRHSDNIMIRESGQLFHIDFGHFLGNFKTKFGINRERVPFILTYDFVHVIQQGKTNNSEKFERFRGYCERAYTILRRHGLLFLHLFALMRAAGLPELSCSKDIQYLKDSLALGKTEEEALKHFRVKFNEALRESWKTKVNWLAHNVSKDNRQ
Briefly: Selectivity interaction (ActivX KiNativ screen (kinase selectivity in THP-1 cell lysates)) EUB0000639a PIK3CD. To be noted: lysate, at 1 µM. The assay is classed as subcellular.

The target in assay [5] is T3, Serine/threonine-protein kinase 17B (Homo sapiens) (UniProt O94768).
T3 sequence (whole entry): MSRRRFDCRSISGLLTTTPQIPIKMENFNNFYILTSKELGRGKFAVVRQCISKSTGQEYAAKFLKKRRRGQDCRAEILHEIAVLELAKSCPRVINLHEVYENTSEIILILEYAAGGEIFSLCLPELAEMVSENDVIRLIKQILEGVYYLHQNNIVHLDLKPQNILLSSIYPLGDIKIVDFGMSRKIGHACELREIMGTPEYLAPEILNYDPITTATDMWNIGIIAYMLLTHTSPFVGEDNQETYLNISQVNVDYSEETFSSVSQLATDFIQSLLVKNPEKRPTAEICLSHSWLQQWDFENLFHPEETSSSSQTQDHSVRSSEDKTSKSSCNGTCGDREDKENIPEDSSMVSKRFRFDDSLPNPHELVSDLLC
Description: Selectivity interaction (KinomeScan (DiscoverX)) EUB0000229b STK17B. Particulars: at 10 µM.

Assay [6] addresses SRSF protein kinase 3 (Homo sapiens) (UniProt Q9UPE1). Description: Selectivity interaction (KinomeScan (DiscoverX)) EUB0000595a SRPK3. Particulars: at 10 µM.

The values that follow come from ChEMBL document CHEMBL5465560, “Selectivity Literature for EUbOPEN Chemogenomic Library” (2024).

Mitogen-activated protein kinase 8, sequence (P45983 whole entry): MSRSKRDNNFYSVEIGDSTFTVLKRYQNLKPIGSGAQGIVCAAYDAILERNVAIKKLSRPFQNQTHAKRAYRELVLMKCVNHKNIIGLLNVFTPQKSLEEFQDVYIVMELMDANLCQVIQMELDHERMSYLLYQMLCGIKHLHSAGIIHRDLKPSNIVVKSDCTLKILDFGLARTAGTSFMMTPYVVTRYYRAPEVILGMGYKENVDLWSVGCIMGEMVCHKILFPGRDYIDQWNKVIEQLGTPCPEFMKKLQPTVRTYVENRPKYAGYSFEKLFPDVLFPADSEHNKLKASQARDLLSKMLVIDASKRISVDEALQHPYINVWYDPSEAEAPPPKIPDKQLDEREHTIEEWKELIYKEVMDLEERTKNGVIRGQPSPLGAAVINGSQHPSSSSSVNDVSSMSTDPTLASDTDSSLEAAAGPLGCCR
SRSF protein kinase 3 (Homo sapiens), sequence (Q9UPE1 whole entry): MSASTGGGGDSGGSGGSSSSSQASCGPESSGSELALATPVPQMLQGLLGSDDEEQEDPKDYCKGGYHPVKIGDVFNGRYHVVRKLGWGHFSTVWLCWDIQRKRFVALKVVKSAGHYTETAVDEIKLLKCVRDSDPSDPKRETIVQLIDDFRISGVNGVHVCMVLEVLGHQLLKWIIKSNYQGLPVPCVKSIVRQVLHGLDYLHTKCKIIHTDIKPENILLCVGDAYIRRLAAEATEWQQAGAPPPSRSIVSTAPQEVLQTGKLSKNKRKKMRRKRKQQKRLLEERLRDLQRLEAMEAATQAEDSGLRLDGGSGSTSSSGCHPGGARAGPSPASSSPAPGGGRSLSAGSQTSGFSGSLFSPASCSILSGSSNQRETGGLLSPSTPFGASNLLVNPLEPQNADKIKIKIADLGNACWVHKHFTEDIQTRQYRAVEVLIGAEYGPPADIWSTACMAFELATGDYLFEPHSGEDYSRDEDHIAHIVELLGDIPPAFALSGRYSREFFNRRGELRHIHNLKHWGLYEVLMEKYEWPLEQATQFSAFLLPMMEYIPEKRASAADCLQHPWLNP

Turning to `C=CC(=O)Nc1cccc(C(=O)Nc2ccc(Nc3cc(-c4[nH]c(SC)nc4C)ccn3)cc2)c1`, the % of control amounted to 5% in assay [1] (at 1 µM) and 1% in assay [1] (at 5 µM).
Take `COc1cc(Nc2nc(C)cc(-c3cnn4nc(OC)ccc34)n2)cc(C(F)(F)F)c1`: the % of control in assay [2] was determined as 86%.
With `Cn1cc(Nc2nccc(N3CC4CCC(C3)N4C(=O)[C@@H]3CC3(F)F)n2)cn1`, the % of inhibition in assay [3] came to 91%.
As for `CC[C@@H]1[C@H](F)C(=O)N[C@@H]1COc1nccc2cc(C(N)=O)c(OC)cc12` [ZIMLOVISERTIB], the % of inhibition in assay [4] is -2.6%.
Turning to `COc1cc(N(C)c2ccnc3ccc(C(F)(F)F)cc23)cc(OC)c1OC`, the % binding in assay [5] was 100%.
As to `COCC(=O)NC/C=C/c1ccc2ncnc(Nc3ccc(Oc4ccc(C)nc4)c(C)c3)c2c1` [CP-724714], the % of control in assay [6] worked out at 100%.
